Laboratory results: US5248221A, “Antifouling coating composition comprising lactone compounds, method for protecting aquatic structures, and articles protected against fouling organisms” (Rohm and Haas Company, priority 1992, dated 1993)
In brackets after ≈: the same amount, converted by molar mass.

How the values were obtained:
[1] = test system: cyprid larvae of the barnacle Balanus amphitrite; experiment: Settlement assay for cyprid-stage barnacle larvae (% settlement)
Procedure: All compounds were tested for their ability to inhibit settlement by cyprid larvae of the barnacle Balanus amphitrite . […] Controls consisted of barnacle larvae and filtered seawater added to the dishes or vials without test compound. Dishes were then incubated for 20-24 hrs at 28° C. with light for approximately 15 hours and in darkness for approximately 9 hours. The dishes or vials were then removed from the incubator, examined under a dissecting microscope to determine whether larvae were living or dead. Larvae were then killed by addition of several drops of 10% formalin solution. Settlement rate was quantified as number of larvae that had attached to the dish or vial surface, expressed as a percentage of total larvae in the dish or vial. Experiments were performed in duplicate.
A number of lactones were tested for control of barnacle settlement. All lactones were tested at a concentration of 3×10^-6 M in dishes containing seawater. The larvae were added and the test conducted as described above.
Five ml of each solution were added to duplicate dishes. The larvae were then added to the dishes and the test conducted as described above.
Aliquots of these solutions were taken and added to duplicate dishes. […] The larvae were then added to the dishes and the test conducted as described above.
A series of solutions of a-angelica lactone in seawater at concentrations ranging from 500 μg/ml to 5 ng/ml were prepared. Aliquots of these solutions were taken and added to duplicate dishes. […] The larvae were then added to the dishes and the test conducted as described above.
A solution of 2-coumaranone (25 μg in 50 ml of filtered, aged seawater) was prepared. The larvae were then added to the dishes and the test conducted as described above.
A series of solutions of γ-decalactone in seawater at concentrations ranging from 500 μg/ml to 5 pg/ml were prepared. Aliquots of these solutions were taken and added to duplicate dishes. […] The larvae were then added to the dishes and the test conducted as described above.
A series of solutions of γ-valerolactone in seawater at concentrations ranging from 500 μg/ml to 500 pg/ml were prepared. Aliquots of these solutions were taken and added to duplicate dishes. […] The larvae were then added to the dishes and the test conducted as described above.

nauplius stage larvae = experiment: whole plant or invertebrate; conditions: for LC50: Amphibalanus amphitrite, read-out: ED50 (half-maximal inhibition)
Procedure: Toxicity assays were conducted by adding nauplius stage larvae to 50×5 mm polystyrene Petri dishes or glass vials containing 5 ml of 100 kDa iltered seawater. […] Dishes or vials receiving no test compound served as controls. The dishes or vials were incubated at 28° C. with a 15:9 light:dark cycle. […] The number of living and dead larvae were then counted. Probit analysis was used to obtain concentrations corresponding to half-maximal inhibition (EC50 values).

[2] = Table 1, 3×10^-6 M in seawater, dishes, Control 35

O=C1Cc2ccccc2O1 [2-coumaranone]
% Settlement ([1]; Table 6 (Example 6), nominal 5 ng/ml, Control 58): 54%
% Settlement ([1]; Table 6 (Example 6), nominal 50 ng/ml, Control 58): 61%
% Settlement ([1]; Table 6 (Example 6), nominal 500 ng/ml, Control 58): 59%
% Settlement ([1]; Table 6 (Example 6), nominal 5 μg/ml, Control 58): 51%
% Settlement ([1]; Table 6 (Example 6), nominal 50 μg/ml, Control 58): 64%
% Settlement ([1]; Table 6 (Example 6), nominal 500 μg/ml, Control 58): 0%

C=C1C(=O)O[C@@H]2C[C@@]3(C)CCC[C@H](C)C3=C[C@H]12 [alantolactone]
ED50 (half-maximal inhibition) (nauplius stage larvae; glass): 0.5 µg/mL (≈ 2.15 µM)

CC1=CCC(=O)O1 [α-angelica lactone]
% Settlement ([1]; Table 4 (Example 4), 5 ng/ml, Control 62): 62%
% Settlement ([1]; Table 4 (Example 4), 50 ng/ml, Control 62): 65%
% Settlement ([1]; Table 4 (Example 4), 500 ng/ml, Control 62): 60%
% Settlement ([1]; Table 4 (Example 4), 5 μg/ml, Control 62): 54%
% Settlement ([1]; Table 4 (Example 4), 50 μg/ml, Control 62): 39%
% Settlement ([1]; Table 4 (Example 4), 500 μg/ml, Control 62): 0%
% Settlement ([1]; Table 5 (Example 5, second test), 5 ng/ml, Control 66): 41%
% Settlement ([1]; Table 5 (Example 5, second test), 50 ng/ml, Control 66): 53%
% Settlement ([1]; Table 5 (Example 5, second test), 500 ng/ml, Control 66): 33%
% Settlement ([1]; Table 5 (Example 5, second test), 5 μg/ml, Control 66): 33%
% Settlement ([1]; Table 5 (Example 5, second test), 50 μg/ml, Control 66): 3%
% Settlement ([1]; Table 5 (Example 5, second test), 500 μg/ml, Control 66): 0%
LC50 (nauplius stage larvae): 70 µg/mL (≈ 714 µM)

C=C1CCOC1=O [α-methylene-γ-butyrolactone]
% Settlement ([1]; Table 2 (Example 2), 5 ng/ml, Control 62): 61%
% Settlement ([1]; Table 2 (Example 2), 50 ng/ml, Control 62): 62%
% Settlement ([1]; Table 2 (Example 2), 500 ng/ml, Control 62): 58%
% Settlement ([1]; Table 2 (Example 2), 5 μg/ml, Control 62): 36%
% Settlement ([1]; Table 2 (Example 2), 50 μg/ml, Control 62): 0%
% Settlement ([1]; Table 2 (Example 2), 500 μg/ml, Control 62): 0%
% Settlement ([1]; Table 3 (Example 3, second test), 50 ng/ml, Control 66): 49%
% Settlement ([1]; Table 3 (Example 3, second test), 500 ng/ml, Control 66): 53%
% Settlement ([1]; Table 3 (Example 3, second test), 5 μg/ml, Control 66): 47%
% Settlement ([1]; Table 3 (Example 3, second test), 50 μg/ml, Control 66): 29%
% Settlement ([1]; Table 3 (Example 3, second test), 500 μg/ml, Control 66): 5%

CC1=C2[C@H]3OC(=O)[C@@H](C)[C@@H]3CC[C@@]2(C)C=CC1=O [α-santonin]
LC50 (nauplius stage larvae): 14 µg/mL (≈ 56.8 µM)

CCCCCCC1CCC(=O)O1 (stereo not drawn) [γ-decalactone]
% Settlement [1, 2]: 3%
% Settlement ([1]; Table 7 (Example 7), 5 pg/ml, Control 66): 45%
% Settlement ([1]; Table 7 (Example 7), 50 pg/ml, Control 66): 52%
% Settlement ([1]; Table 7 (Example 7), 500 pg/ml, Control 66): 44%
% Settlement ([1]; Table 7 (Example 7), 5 ng/ml, Control 66): 32%
% Settlement ([1]; Table 7 (Example 7), 50 ng/ml, Control 66): 25%
% Settlement ([1]; Table 7 (Example 7), 500 ng/ml, Control 66): 8%
% Settlement ([1]; Table 7 (Example 7), 5 μg/ml, Control 66): 25%
% Settlement ([1]; Table 7 (Example 7), 50 μg/ml, Control 66): 1%
% Settlement ([1]; Table 7 (Example 7), 500 μg/ml, Control 66): 0%
LC50 (nauplius stage larvae): 0.004 µg/mL (≈ 0.0235 µM)

CCCCC1CCC(=O)O1 (stereo not drawn) [γ-octanolactone]
% Settlement [1, 2]: 39%

CC1CCC(=O)O1 (stereo not drawn) [γ-valerolactone]
% Settlement [1, 2]: 26%
% Settlement ([1]; Table 8 (Example 8), 500 pg/ml, Control 66): 55%
% Settlement ([1]; Table 8 (Example 8), 5 ng/ml, Control 66): 43%
% Settlement ([1]; Table 8 (Example 8), 50 ng/ml, Control 66): 42%
% Settlement ([1]; Table 8 (Example 8), 500 ng/ml, Control 66): 48%
% Settlement ([1]; Table 8 (Example 8), 5 μg/ml, Control 66): 42%
% Settlement ([1]; Table 8 (Example 8), 50 μg/ml, Control 66): 37%
% Settlement ([1]; Table 8 (Example 8), 500 μg/ml, Control 66): 52%

CCCCCCC1CCCC(=O)O1 (stereo not drawn) [δ-undecalactone, reference compound]
% Settlement [1, 2]: 40%

O=C1CCCCCO1 [ε-caprolactone, reference compound]
% Settlement [1, 2]: 41%
